Source: the supplement of paper PMC10307832

What was measured:
Test in all cases: relative viability (nuclei count vs DMSO), 5 days (fraction); higher = more cells survive
COR-L 105 = test system: COR-L 105
Outline: (§1)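 Lung cancer cell lines were pin-tool dosed in 1536-well plates on the day after seeding, with either a lone drug or a fixed anchor-drug dose plus five library-drug doses (not always all listed) in √10 steps. Nuclei were counted on 4× images after 5 days. Relative viability is the ratio of treated-well to vehicle-well nuclei counts, with each value a median of duplicate plates.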

COR-L23 = test system: COR-L23
Outline: as §1

HARA = test system: HARA
Outline: as §1

HCC-15 = test system: HCC-15
Outline: as §1

HOP-62 = test system: HOP-62
Outline: as §1

NCI-H1355 = test system: NCI-H1355
Outline: as §1

NCI-H1395 = test system: NCI-H1395
Outline: as §1

NCI-H1734 = test system: NCI-H1734
Outline: as §1

NCI-H1755 = test system: NCI-H1755
Outline: as §1

NCI-H1792 = test system: NCI-H1792
Outline: as §1

NCI-H1793 = test system: NCI-H1793
Outline: as §1

NCI-H1993 = test system: NCI-H1993
Outline: as §1

NCI-H2009 = test system: NCI-H2009
Outline: as §1

NCI-H2170 = test system: NCI-H2170
Outline: as §1

NCI-H2228 = test system: NCI-H2228
Outline: as §1

NCI-H2347 = test system: NCI-H2347
Outline: as §1

NCI-H358 = test system: NCI-H358
Outline: as §1

NCI-H647 = test system: NCI-H647
Outline: as §1

NCI-H838 = test system: NCI-H838
Outline: as §1

SK-MES-1 = test system: SK-MES-1
Outline: as §1

UMC-11 = test system: UMC-11
Outline: as §1

For `O=c1cc(-c2cccc3c2Sc2ccccc2S3)oc(N2CCOCC2)c1` + CS(=O)(=O)CCNCc1ccc(-c2ccc3ncnc(Nc4ccc(OCc5cccc(F)c5)c(Cl)c4)c3c2)o1 [Lapatinib] (partner 2 µM), the relative viability (COR-L 105; first compound 0.08 µM) was 0.359, the relative viability (COR-L 105; first compound 0.253 µM) was 0.323 and the relative viability (COR-L 105; first compound 0.8 µM) was 0.306. It also gave a relative viability (COR-L 105; first compound 2.53 µM) of 0.375, a relative viability (COR-L 105; first compound 8 µM) of 0.386 and a relative viability (COR-L23; first compound 0.08 µM) of 1.1. For the same molecule, the relative viability (COR-L23; first compound 0.253 µM) was 1.67, the relative viability (COR-L23; first compound 0.8 µM) was 0.962 and the relative viability (COR-L23; first compound 2.53 µM) was 0.836. It also gave a relative viability (COR-L23; first compound 8 µM) of 1.09, a relative viability (HARA; first compound 0.08 µM) of 0.662 and a relative viability (HARA; first compound 0.253 µM) of 0.751. It also gave a relative viability (HARA; first compound 0.8 µM) of 0.562, a relative viability (HARA; first compound 2.53 µM) of 0.632 and a relative viability (HARA; first compound 8 µM) of 0.719. For the same molecule, the relative viability (HCC-15; first compound 0.08 µM) was 0.885, the relative viability (HCC-15; first compound 0.253 µM) was 1.02 and the relative viability (HCC-15; first compound 0.8 µM) was 0.873. The relative viability (HCC-15; first compound 2.53 µM) was 0.82, the relative viability (HCC-15; first compound 8 µM) was 0.988 and the relative viability (HOP-62; first compound 0.08 µM) was 0.829. The relative viability (HOP-62; first compound 0.253 µM) was 1.08, the relative viability (HOP-62; first compound 0.8 µM) was 1.13 and the relative viability (HOP-62; first compound 2.53 µM) was 0.727. For the same molecule, the relative viability (HOP-62; first compound 8 µM) was 1.07, the relative viability (NCI-H1355; first compound 0.08 µM) was 0.963 and the relative viability (NCI-H1355; first compound 0.253 µM) was 1.15. The relative viability (NCI-H1355; first compound 0.8 µM) was 0.799, the relative viability (NCI-H1355; first compound 2.53 µM) was 0.956 and the relative viability (NCI-H1355; first compound 8 µM) was 1.05. For the same molecule, the relative viability (NCI-H1395; first compound 0.08 µM) was 0.971, the relative viability (NCI-H1395; first compound 0.253 µM) was 1.04 and the relative viability (NCI-H1395; first compound 0.8 µM) was 1.02. For the same molecule, the relative viability (NCI-H1395; first compound 2.53 µM) was 1.16, the relative viability (NCI-H1395; first compound 8 µM) was 0.949 and the relative viability (NCI-H1734; first compound 0.08 µM) was 1.07. The relative viability (NCI-H1734; first compound 0.253 µM) was 1.55, the relative viability (NCI-H1734; first compound 0.8 µM) was 1.12 and the relative viability (NCI-H1734; first compound 2.53 µM) was 0.79. For the same molecule, the relative viability (NCI-H1734; first compound 8 µM) was 1.51, the relative viability (NCI-H1755; first compound 0.08 µM) was 1.09 and the relative viability (NCI-H1755; first compound 0.253 µM) was 1.06. The relative viability (NCI-H1755; first compound 0.8 µM) was 1.15, the relative viability (NCI-H1755; first compound 2.53 µM) was 1.03 and the relative viability (NCI-H1755; first compound 8 µM) was 1.08. For the same molecule, the relative viability (NCI-H1792; first compound 0.253 µM) was 1, the relative viability (NCI-H1792; first compound 0.8 µM) was 0.824 and the relative viability (NCI-H1792; first compound 2.53 µM) was 0.83. It also gave a relative viability (NCI-H1792; first compound 8 µM) of 1.58, a relative viability (NCI-H1793; first compound 0.08 µM) of 0.641 and a relative viability (NCI-H1793; first compound 0.253 µM) of 1.16. It also gave a relative viability (NCI-H1793; first compound 0.8 µM) of 0.643, a relative viability (NCI-H1793; first compound 2.53 µM) of 0.837 and a relative viability (NCI-H1793; first compound 8 µM) of 0.752. The relative viability (NCI-H1993; first compound 0.08 µM) was 0.773, the relative viability (NCI-H1993; first compound 0.253 µM) was 0.802 and the relative viability (NCI-H1993; first compound 0.8 µM) was 0.849. It also gave a relative viability (NCI-H1993; first compound 2.53 µM) of 0.875, a relative viability (NCI-H1993; first compound 8 µM) of 0.844 and a relative viability (NCI-H2009; first compound 0.08 µM) of 0.879. The relative viability (NCI-H2009; first compound 0.253 µM) was 0.893, the relative viability (NCI-H2009; first compound 0.8 µM) was 0.876 and the relative viability (NCI-H2009; first compound 2.53 µM) was 0.895. For the same molecule, the relative viability (NCI-H2009; first compound 8 µM) was 0.823, the relative viability (NCI-H2170; first compound 0.08 µM) was 0.258 and the relative viability (NCI-H2170; first compound 0.253 µM) was 0.284. It also gave a relative viability (NCI-H2170; first compound 0.8 µM) of 0.239, a relative viability (NCI-H2170; first compound 2.53 µM) of 0.271 and a relative viability (NCI-H2170; first compound 8 µM) of 0.308. For the same molecule, the relative viability (NCI-H2228; first compound 0.08 µM) was 1.02, the relative viability (NCI-H2228; first compound 0.253 µM) was 1.5 and the relative viability (NCI-H2228; first compound 0.8 µM) was 0.912. It also gave a relative viability (NCI-H2228; first compound 2.53 µM) of 0.891, a relative viability (NCI-H2228; first compound 8 µM) of 1.1 and a relative viability (NCI-H2347; first compound 0.08 µM) of 0.978. It also gave a relative viability (NCI-H2347; first compound 0.253 µM) of 1.09, a relative viability (NCI-H2347; first compound 0.8 µM) of 1.02 and a relative viability (NCI-H2347; first compound 2.53 µM) of 1.04. For the same molecule, the relative viability (NCI-H2347; first compound 8 µM) was 1.19, the relative viability (NCI-H358; first compound 0.08 µM) was 0.407 and the relative viability (NCI-H358; first compound 0.253 µM) was 0.392. It also gave a relative viability (NCI-H358; first compound 0.8 µM) of 0.42, a relative viability (NCI-H358; first compound 2.53 µM) of 0.424 and a relative viability (NCI-H358; first compound 8 µM) of 0.467. The relative viability (NCI-H647; first compound 0.08 µM) was 1.19, the relative viability (NCI-H647; first compound 0.253 µM) was 1.21 and the relative viability (NCI-H647; first compound 0.8 µM) was 0.985. For the same molecule, the relative viability (NCI-H647; first compound 2.53 µM) was 0.886, the relative viability (NCI-H647; first compound 8 µM) was 0.83 and the relative viability (NCI-H838; first compound 0.08 µM) was 0.973. The relative viability (NCI-H838; first compound 0.253 µM) was 1.36, the relative viability (NCI-H838; first compound 0.8 µM) was 0.844 and the relative viability (NCI-H838; first compound 2.53 µM) was 0.969. The relative viability (NCI-H838; first compound 8 µM) was 0.953, the relative viability (SK-MES-1; first compound 0.08 µM) was 0.487 and the relative viability (SK-MES-1; first compound 0.253 µM) was 0.562. It also gave a relative viability (SK-MES-1; first compound 0.8 µM) of 0.445, a relative viability (SK-MES-1; first compound 2.53 µM) of 0.483 and a relative viability (SK-MES-1; first compound 8 µM) of 0.439. It also gave a relative viability (UMC-11; first compound 0.08 µM) of 1.02, a relative viability (UMC-11; first compound 0.253 µM) of 1.28 and a relative viability (UMC-11; first compound 0.8 µM) of 1.21. For the same molecule, the relative viability (UMC-11; first compound 2.53 µM) was 0.78 and the relative viability (UMC-11; first compound 8 µM) was 1.29.
